Measured values as given in article PMC2680961, “Homologous desensitization of signalling by the alpha (α) isoform of the human thromboxane A2 receptor: A specific role for nitric oxide signalling” (Biochimica et Biophysica Acta, 2007).

Columns and labels:
TPα = target: T1, TPα (Homo sapiens, UniProt P21731); experiment: Intracellular calcium mobilization, HEK.TPα cells; type: cell-based; details: HEK.TPα
T1 construct: expressed in transfected cells
T1 sequence (P21731 1-343): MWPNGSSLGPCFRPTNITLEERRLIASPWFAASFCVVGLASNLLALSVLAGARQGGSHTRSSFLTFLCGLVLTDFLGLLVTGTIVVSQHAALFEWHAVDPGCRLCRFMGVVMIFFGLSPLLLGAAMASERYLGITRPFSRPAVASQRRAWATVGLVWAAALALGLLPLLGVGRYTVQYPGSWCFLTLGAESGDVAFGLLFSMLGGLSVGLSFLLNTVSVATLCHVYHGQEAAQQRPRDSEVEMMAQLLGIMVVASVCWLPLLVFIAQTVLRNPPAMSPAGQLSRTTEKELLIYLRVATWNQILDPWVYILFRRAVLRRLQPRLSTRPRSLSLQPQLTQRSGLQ
Procedure: Measurement of intracellular calcium mobilization ([Ca^2+]i) in FURA2/AM preloaded HEK 293 cell lines (2 × 10^6 cells/dish), each transiently co-transfected with pADVA (10 μg), and pCMV:Gαq (25 μg), was carried out as previously described. To investigate the effect of GRK2/βARK1 on TP-mediated [Ca^2+]i mobilization, HEK.TPα or HEK.TPβ cells (2 × 10^6 cells/dish) were co-transfected with pADVA (10 μg), pCMV:Gαq (25 μg) along with pRK5:βARK1^495–689 (25 μg), encoding a dominant negative form of GRK2/βARK1[39]. Approximately 48 h post-transfection, cells were harvested by scraping, washed twice in ice-cold PBS and resuspended in HBSSHB (modified Ca^2+/Mg^2+-free Hank's buffered salt solution, containing […], pH 7.67, 0.1% bovine serum albumin (BSA)) buffer at 10^7 cells/ml and incubated in the dark with 5 μM FURA2/AM for 45 min at 37 °C. Cells were collected by centrifugation (900×g, 5 min), washed once in an equal volume of HBSSHB, and were finally resuspended in HBSSHB buffer at 10^7 cells/ml and kept at room temperature in the dark for 40 min. For each measurement of [Ca^2+]i mobilization, aliquots of cells were diluted to 0.825 × 10^6 cells/ml in HBSSHB, 1 mM CaCl2 and FURA2 fluorescence was recorded (2 ml aliquots of cells) at 37^ °C with gentle stirring with a Perkin Elmer-Cetus LS50-B spectrofluorometer at excitation wavelengths of 340 nm and 380 nm and emission wavelength of 510 nm, respectively.
[…] To assess agonist-mediated homologous desensitization, cells (0.825 × 10^6 cells/ml; 2 ml per assay) were stimulated with 1 μM U46619 (Primary stimulation) or, as a control, with the vehicle for 4 min; thereafter, cells were collected by centrifugation (900×g, 5 min); were washed twice in 2 ml HBSSHB, 1 mM CaCl2; and finally resuspended in 2 ml HBSSHB,1 mM CaCl2 and were left to recover over various time intervals (ranging from 0 to 60 min); thereafter, cells re-stimulated with 1 μM U46619 (Secondary stimulation) and changes in [Ca^2+]i mobilization were monitored as a function of time. To assess the role of protein kinase (PK) A, PKC or PKG on U46619-mediated desensitization of TPα signalling, cells were pre-incubated with the PKA inhibitor H-89 (10 μM), the PKC inhibitor GF 109203X (50 nM) or the PKG inhibitor KT 5823 (50 nM), for 15 min and respective kinase inhibitors were maintained throughout the primary/secondary U46619-stimulations and during the washes.
The vehicle had no effect on U46619-mediated [Ca^2+]i mobilization. Calibration of the signal was performed in each sample by adding 0.2% Triton X-100 to obtain the maximal fluorescence ratio (Rmax) and then 1 mM EGTA to obtain the minimal fluorescence ratio (Rmin). The ratio of the fluorescence at 340 nm to that at 380 nm is a measure of [Ca^2+]i, which assumes a Kd of 225 nM Ca^2+ for FURA2/AM. The results presented in the figures are representative data from at least three or four independent experiments and are plotted as changes in Ca^2+i mobilized (Δ[Ca^2+]i (nM)) as a function of time (s) upon ligand stimulation. Changes in [Ca^2+]i mobilization were determined by measuring peak rises in [Ca^2+]i mobilized (Δ[Ca^2+]i) and were calculated as mean changes in Δ[Ca^2+]i ± S.E.M. (nM).

TP^S145A,Δ328 = target: T2, TP^S145A,Δ328 (Homo sapiens, UniProt P21731, S145A); experiment: Intracellular calcium mobilization, HEK.TP^S145A,Δ328 cells; type: cell-based
T2 construct: expressed in transfected cells
T2 sequence (P21731 1-328 S145A): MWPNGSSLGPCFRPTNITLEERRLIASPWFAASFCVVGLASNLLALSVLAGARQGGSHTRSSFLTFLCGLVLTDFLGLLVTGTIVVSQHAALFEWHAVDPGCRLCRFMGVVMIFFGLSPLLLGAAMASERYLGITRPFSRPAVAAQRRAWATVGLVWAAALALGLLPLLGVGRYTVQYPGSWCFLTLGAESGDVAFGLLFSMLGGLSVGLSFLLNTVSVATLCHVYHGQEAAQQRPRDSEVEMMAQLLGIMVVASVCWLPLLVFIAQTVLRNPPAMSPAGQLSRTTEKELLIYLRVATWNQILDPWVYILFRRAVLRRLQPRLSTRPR
Procedure: Measurement of intracellular calcium mobilization ([Ca^2+]i) in FURA2/AM preloaded HEK 293 cell lines (2 × 10^6 cells/dish), each transiently co-transfected with pADVA (10 μg), and pCMV:Gαq (25 μg), was carried out as previously described. To investigate the effect of GRK2/βARK1 on TP-mediated [Ca^2+]i mobilization, HEK.TPα or HEK.TPβ cells (2 × 10^6 cells/dish) were co-transfected with pADVA (10 μg), pCMV:Gαq (25 μg) along with pRK5:βARK1^495–689 (25 μg), encoding a dominant negative form of GRK2/βARK1[39]. […] For each measurement of [Ca^2+]i mobilization, aliquots of cells were diluted to 0.825 × 10^6 cells/ml in HBSSHB, 1 mM CaCl2 and FURA2 fluorescence was recorded (2 ml aliquots of cells) at 37^ °C with gentle stirring with a Perkin Elmer-Cetus LS50-B spectrofluorometer at excitation wavelengths of 340 nm and 380 nm and emission wavelength of 510 nm, respectively.
Cells were stimulated with the TP agonist U46619 (1 μM) and changes in [Ca^2+]i mobilization were monitored as a function of time. […]
The vehicle had no effect on U46619-mediated [Ca^2+]i mobilization. Calibration of the signal was performed in each sample by adding 0.2% Triton X-100 to obtain the maximal fluorescence ratio (Rmax) and then 1 mM EGTA to obtain the minimal fluorescence ratio (Rmin). […]

Q: CCCCC[C@H](O)/C=C/[C@@H]1[C@@H](C/C=C\CCCC(=O)O)[C@H]2CO[C@@H]1C2 [U46619] was tested. Which “Δ[Ca2+]i, U46619-induced” value (TPα; + GRK^DN (βARK1^495–689), primary 1 μM U46619) did it give?
A: 150 ± 7.5 nM

Q: What about the “Δ[Ca2+]i, U46619-induced” value (TPα; + GRK^DN, secondary 1 μM U46619 at 15 min) of the same compound?
A: 0 nM

Q: And the “Δ[Ca2+]i, U46619-induced” value (TPα; primary stimulation, 1 μM U46619 4 min)?
A: 174 ± 8.8 nM

Q: What about the “Δ[Ca2+]i, U46619-induced” value (TPα; secondary stimulation 1 μM U46619 at 15 min after primary, after washout) of the same compound?
A: 0 nM

Q: And the “Δ[Ca2+]i, U46619-induced” value (TPα; secondary stimulation 1 μM U46619 at 60 min after primary, after washout)?
A: 0 nM

Q: And the “Δ[Ca2+]i, U46619-induced” value (TPα; vehicle as primary stimulation, washout, 1 μM U46619 at 60 min)?
A: 191.5 ± 25.5 nM

Q: And the “Δ[Ca2+]i, U46619-induced” value (TPα; − GRK^DN (pRK5 control), primary 1 μM U46619)?
A: 165 ± 9 nM

Q: What about the “Δ[Ca2+]i, U46619-induced” value (TPα; − GRK^DN, secondary 1 μM U46619 at 15 min) of the same compound?
A: 0 nM

Q: And the “Δ[Ca2+]i, U46619-induced” value (TP^S145A,Δ328; primary 1 μM U46619 4 min)?
A: 174 ± 7.7 nM

Q: And the “Δ[Ca2+]i, U46619-induced” value (TP^S145A,Δ328; secondary 1 μM U46619 at 15 min)?
A: 170 ± 9.9 nM
